The values that follow come from patent US10533018B2, “Antimicrobial prochelators to target drug-resistant bacteria and methods of making and using the same” (Duke University, priority 2015, dated 2020).

Assay [1] has as its system clinical isolates of Klebsiella pneumonia (Klebs). Briefly: Broth microdilution in Klebs clinical isolates. The format is cell-based. To be noted: Klebsiella pneumoniae, LB broth, read-out: IC50. From the text: (§1) Bacterial culture reagents including LB broth (Lennox), agar-agar, ampicillin, and ceftriaxone were purchased from Sigma Aldrich Corp. The Escherichia coli (E. coli) K12 strain HB101 and pGLO E. coli transformation kit purchased from Bio-Rad Laboratories Inc. HB101 was transformed with the bla gene via the pGLO plasmid. The bla gene encodes for a TEM-1 β-lactamase that imparts penicillin resistance to the mutant E. coli K-12 strain (+Bla). Strains E. coli UTI89, [27] pCOM-GFP-transformed E. coli UTI89 (pCOM-GFP), [28] and Methicillin-Resistant Staphylococcus aureus (MRSA) clone USA300 [29] have been previously described. The Extended-Spectrum β-Lactamase (ESBL) E. coli, Klebsiella pneumonia (Klebs), and Pseudomonas aeruginosa (Pseudo) strains were clinical isolates acquired deidentified from Duke Hospital and tested for antibiotic susceptibility in the Clinical Microbiology Laboratory using standard clinical susceptibility methods.
(§2) Cultures were incubated on LB (Lennox, Sigma) agar at 37° C. in ambient atmospheric composition. Before beginning an experiment, a single bacterial colony grown on LB agar was resuspended in 2 mL LB broth and incubated overnight to form a turbid cell suspension. The overnight culture was diluted 1:100 in LB and used immediately as the working culture. To assess the antibacterial activity of compounds, the working bacterial culture was aliquoted in a clear, flat-bottomed, 96-well polystyrene plate (Costar) and the compound of interest was added in 2-fold serial dilution from 500 to 1 μM. Plates were covered with a breathable sealing film (Aeroseal, Genesee Scientific) and incubated at 37° C. in ambient atmospheric composition with shaking at 200 rpm. Optical density at 600 nm was recorded after 4 h and 20 h for each well using a standard OD600 protocol with LB serving as the blank. The resulting dose-response curves were fit to a nonlinear regression in GraphPad Prism Version 6 to calculate the IC50 of DB4-51 in each strain.
On the technique in general: In broth dilution the organism is exposed to a series of concentrations in liquid medium.

The test system of assay [2] is susceptible E. coli HB101 K-12 (no β-lactamase). Briefly: Broth microdilution (preliminary, Table 1), susceptible K-12. Type of assay: cell-based, Escherichia coli. To be noted: Escherichia coli; Susceptable K-12 E. coli; LB; OD600; preliminary results. How it is done:
(§3) In order to determine the antibiotic activity of DB4-51, a debilitated strain of Escherichia coli (HB101 K-12) was transformed with the pGLO plasmid from Bio-Rad in order to express β-lactamase. This transformation was confirmed by growing on a selective medium containing 100 μg/ml ampicillin in Lennox LB with 1.5% agar. A broth microdilution assay was employed to determine the relative activity of DB4-51 against susceptible (HB 101 K-12, no β-lactamase) and resistant (HB 101 K-12 transformed to express β-lactamase) E. coli. Using Lennox LB as the medium. serial dilutions of the test compounds were performed in a 96-well plate and then inoculated with E. coli before incubating for 16-20 hours at 35° C. The bacterial growth was monitored by recording each well's absorbance at 600 nm (OD600.) The OD600 values of E. coli suspensions incubated with various compounds were compared in order to assess their activities.
FIG. 7: OD600 of susceptible and resistant K-12 E. coli cultures against DB4-51 and known antibiotics as a function of concentration. Ampicillin has a penicillin core and cephalexin has a cephalosporin core. Cultures were grown in LB broth at 37° C. while shaking at 200 rpm for 18 hours and then diluted to an OD600 of 0.005 before adding the compounds. Plates were grown at 35° C. while shaking at 200 rpm and the OD600 was recorded after 18 hours.
(§4) Table 1: Calculated IC50 values for DB4-51, cephalexin, ampicillin, and pyrithione. These values were derived by fitting the data to a log dose-response curve and reporting the concentration corresponding to half the maximum OD600 value for each compound.

Assay [3] relates to resistant E. coli HB101 K-12 transformed to express β-lactamase. Briefly: microbe, parasite or virus in culture. The format is cell-based, Escherichia coli. To be noted: Escherichia coli. How it is done:
as §3, with “Using Lennox LB as the medium. serial dilutions of the test compounds were performed in a 96-well plate and then inoculated with E. coli before incubating for 16-20 hours at 35° C.” left out
FIG. 7: OD600 of susceptible and resistant K-12 E. coli cultures against DB4-51 and known antibiotics as a function of concentration. Ampicillin has a penicillin core and cephalexin has a cephalosporin core. Cultures were grown in LB broth at 37° C. while shaking at 200 rpm for 18 hours and then diluted to an OD600 of 0.005 before adding the compounds. […]
as §4

Another assay concerns +Bla K-12 E. coli. The assay can be described thus: microbe, parasite or virus in culture. To be noted: for IC50: Escherichia coli, +Bla K-12 E. coli. The format is cell-based, Escherichia coli.
Text: as §1, §2
(§5) The ability of DB4-162 to inhibit bacterial growth was assessed by a traditional broth microdilution method that assesses the turbidity of liquid cultures in the presence of varying concentrations of the compound. As described above for DB4-51, the antibacterial properties of the prochelator DB4-162 were assessed in non-pathogenic lab-strain HB101K-12 E. coli and compared to the pGLO-transfected mutant HB101K-12 E. coli that express β-lactamase. Clinically relevant pathogenic bacteria were also screened, including UTI89 E. coli, pCOM transfected UTI89 E. coli (pCOM), extended spectrum β-lactamase (ESBL) E. coli, methicillin-resistant Staphylococcus aureus (MRSA), and Klebsiella pneumonia (Klebs). In addition to being naturally resistant to many β-lactam antibiotics, MRSA can produce a number of β-lactamases. […] It should be noted that all of the bacteria tested are gram-negative except for gram-positive MRSA.
(§6) The goal of this screen was to calculate the IC50 of the prochelator in a series of pathogenic bacteria and compare these values to the IC50 of known antibiotics in those same strains to determine the relative effectiveness of DB4-162 against the drug-resistant and drug-susceptible bacteria in comparison to current antibiotic treatment options. Bacterial growth was monitored in LB broth at 37° C. in the presence and absence of DB4-162 for 20 hours. A concentration gradient of DB4-162 from 500 to 0 μM was used to screen all 7 strains of bacteria and the dose-response curves were fit to a […] to calculate the IC50 of DB4-162 in each strain. These IC50 values are an approximation of how effectively DB4-162 inhibits the growth of each bacterial strain in vitro.
(§7) IC50 values for ampicillin were calculated via broth microdilution in LB broth only. Values are listed as the mean followed by the 95% confidence interval about the mean. Mean and confidence intervals were calculated from a variable slope, nonlinear regression fit to the dose-response OD600 data. […]

The subject of the next assay is −Bla K-12 E. coli. Briefly: microbe, parasite or virus in culture. Particulars: for IC50: Escherichia coli, −Bla K-12 E. coli, read-out: IC50. The format is cell-based, Escherichia coli.
Text: as §1, §2, §5, §6, §7

In another assay the test system is UTI89 E. coli. Briefly: Broth microdilution growth inhibition (OD600). Particulars: for IC50: Escherichia coli, UTI89 E. coli. The format is cell-based, Escherichia coli.
Text: as §1, §2, §5, §6, §7

In assay [4] the test system is Klebsiella pneumonia (Klebs). Briefly: Broth microdilution growth inhibition (OD600). Type of assay: cell-based. To be noted: for IC50: Klebsiella pneumoniae.
Text: as §1, §2, §5, §6, §7

In assay [5] the test system is Methicillin-Resistant Staphylococcus aureus (MRSA). Briefly: microbe, parasite or virus in culture. The format is cell-based. To be noted: for IC50: Staphylococcus aureus.
Text: as §1, §2, §5, §6, §7

The next assay concerns ESBL E. coli. Briefly: microbe, parasite or virus in culture. The format is cell-based, Escherichia coli. To be noted: Escherichia coli, ESBL E. coli; LB broth.
Text: as §1, §2, §5, §6, §7

Another assay concerns pCOM E. coli. Briefly: microbe, parasite or virus in culture. The format is cell-based, Escherichia coli. Particulars: Escherichia coli, pCOM E. coli.
Text: as §1, §2, §5, §6, §7

Assay [6] is described as follows: Calcein fluorescence assay for Cu competition. Type of assay: physicochemical. To be noted: 2 μM calcein + 2.4 μM CuCl2, pH 7.4 PBS; 20 μM (10 equivalents) compound alone; 1 h. Here is the method:
FIG. 11: To solutions of 2 μM calcein in pH 7.4 PBS was added 2.4 μM CuCl2 and the samples were fully equilibrated at room temperature for 2 hours. Next, 20 μM TAT, 20 μM DB4-162, 0.1 units/mL β-lactamase were added and the fluorescence at 500 nm was recorded after one hour.
A calcein fluorescence assay for metal competition was utilized in order to evaluate the relative metal-binding affinity of DB4-51 compared to PT. The fluorescence intensity of the probe calcein is quenched by more than 90% upon binding Cu^2+. […] However, when incubated with 10 equivalents of DB4-51 and 0.1 units/mL Type III β-lactamase from Enterobacter cloacae, there is an 85% return in calcein fluorescence, which correlates well with the 90% return observed for PT itself at the same concentration.
FIG. 4: Relative Cu binding assay with DB4-51 and PT against calcein. Solutions of 2 μM calcein and 2.4 μM CuCl2 in pH 7.4 PBS were equilibrated at room temperature for 2 hours prior to addition of 20 μM PT, 20 μM DB4-51, and/or 0.1 units/mL β-lactamase (Bla).
The calcein assay was utilized in order to assess the relative copper chelating ability of the prochelator and TAT. The fluorescence emission of calcein is quenched by more than 90% in the presence of 1.2 equivalents of CuCl2 (FIG. 11). […] The addition of 0.1 units/mL β-lactamase alone has no effect on the quenched fluorescence signal of the Cu-calcein solution. […] However, when incubated with 10 equivalents of DB4-162 and 0.1 units/mL β-lactamase there is a 90% return in calcein fluorescence. […] While it is unclear why 10 equivalents of TAT are insufficient to out-compete calcein for copper, it may be related to the propensity of TAT to form other species in aqueous media.

Like-named read-outs stand apart in the source and are kept apart here.

One may read the IC50 as the point on the concentration scale where inhibition reaches its midpoint. For `CO/N=C(\C(=O)N[C@@H]1C(=O)N2C(C(=O)O)=C(CSc3nc(=O)c(=O)[nH]n3C)CS[C@H]12)c1csc(N)n1` [Ceftriaxone], the IC50 was found to be 0.4 µM in assay [1] (Klebs Isolate 1); 0.7 µM in assay [1] (Klebs Isolate 2); 2 µM in [1] (Klebs Isolate 3); 1 µM in assay [1] (Klebs Isolate 4); 0.1 µM in assay [1] (Klebs Isolate 5); 0.3 µM in assay [1] (Klebs Isolate 6). Moreover, the IC50 in [1] (Klebs Isolate 7) turned out to be 0.3 µM; in assay [1] (Klebs Isolate 8) it was 0.1 µM; in assay [1] (Klebs Isolate 9), 73 µM; in assay [1] (Klebs Isolate 10), 0.03 µM; in assay [1] (Klebs Isolate 11) it was 0.01 µM; in assay [1] (Klebs Isolate 12), 0.1 µM. In addition, the IC50 in assay [1] (Klebs Isolate 13) turned out to be 1 µM.
Take `CC1=C(C(=O)O)N2C(=O)[C@@H](NC(=O)[C@H](N)c3ccccc3)[C@H]2SC1` [Cephalexin]: the IC50 in [2] was determined as 26 µM; in [3], 33 µM.
For the compound `[Cl][Cu][Cl]` [CuCl2], the increase of growth is 5-20% in the assay on +Bla K-12 E. coli (K-12 E. coli (+Bla), 10 μM supplemental CuCl2) and 5-20% in the assay on −Bla K-12 E. coli (K-12 E. coli (−Bla), 10 μM supplemental CuCl2). The reduction of growth entry is reported as “less than 20%” in the assay on UTI89 E. coli (UTI89, concentrations up to 500 μM); “less than 20%” in [4] (concentrations up to 500 μM); “less than 20%” in assay [5] (concentrations up to 500 μM).
For the compound `Cc1csc(=S)n1O` [TAT, 3-hydroxy-4-methyl-2(3H)-thiazolethione], the IC50 with +Bla K-12 E. coli (LB + 10 μM CuCl2) turned out to be 38 µM; with +Bla K-12 E. coli (LB + 500 μM BCS), 70 µM; in the assay with +Bla K-12 E. coli (LB broth) it was 36 µM; with ESBL E. coli it was 41 µM; in the assay on pCOM E. coli (LB + 10 μM CuCl2), 7 µM; with pCOM E. coli (LB + 500 μM BCS), 28 µM. For the same compound, the IC50 in the assay on pCOM E. coli (LB broth) was found to be 6 µM; in the assay on −Bla K-12 E. coli (LB + 10 μM CuCl2), 36 µM; with −Bla K-12 E. coli (LB + 500 μM BCS), 70 µM; in the assay on −Bla K-12 E. coli (LB broth) it was 23 µM; in the assay on UTI89 E. coli (LB + 10 μM CuCl2), 9 µM; in the assay with UTI89 E. coli (LB + 500 μM BCS), 38 µM. Also, the IC50 in the assay on UTI89 E. coli (LB broth) was determined as 6 µM; in assay [4] (LB + 10 μM CuCl2), 26 µM; in assay [4] (LB + 500 μM BCS) it was 51 µM; in assay [4] (LB broth) it was 14 µM; in assay [5] (LB + 10 μM CuCl2) it was 10 µM; in assay [5] (LB + 500 μM BCS), 29 µM. The IC50 in [5] (LB broth) was 23 µM. Further, the “return in calcein fluorescence” value in assay [6] was 30%.
